Source: PMC11590367, “Characterization of novel small molecule inhibitors of estrogen receptor-activation function 2 (ER-AF2)” (Breast Cancer Research : BCR, 2024)
Entries after “also recorded” stand apart in the source; their conditions may differ.

Columns and labels:
Type in all cases: cell-based
[1] = target: T1, ER-SRC3 interaction in MCF7 cells (Homo sapiens, UniProt P03372); test: Proximity ligation assay (PLA), MCF7; details: 10 µM, 48 h, E2 stimulation
T1 construct: endogenous in cells; host or cells: MCF7 or TamR3 cells
T1 sequence (P03372 whole entry): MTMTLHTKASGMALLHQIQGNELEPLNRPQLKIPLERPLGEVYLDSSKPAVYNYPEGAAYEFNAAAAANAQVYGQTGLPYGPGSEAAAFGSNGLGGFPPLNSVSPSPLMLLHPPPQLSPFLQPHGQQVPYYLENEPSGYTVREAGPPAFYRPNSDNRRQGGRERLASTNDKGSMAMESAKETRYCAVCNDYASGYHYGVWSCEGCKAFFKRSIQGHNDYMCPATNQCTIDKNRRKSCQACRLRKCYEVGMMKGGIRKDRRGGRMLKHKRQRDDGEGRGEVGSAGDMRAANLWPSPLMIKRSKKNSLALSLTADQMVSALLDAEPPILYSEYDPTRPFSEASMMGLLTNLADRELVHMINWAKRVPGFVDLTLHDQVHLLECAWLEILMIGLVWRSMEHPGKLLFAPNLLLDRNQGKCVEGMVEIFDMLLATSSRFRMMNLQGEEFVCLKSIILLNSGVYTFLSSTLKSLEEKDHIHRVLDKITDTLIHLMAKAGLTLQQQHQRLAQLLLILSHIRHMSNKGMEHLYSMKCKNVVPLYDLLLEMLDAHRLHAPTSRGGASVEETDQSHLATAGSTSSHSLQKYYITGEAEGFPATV
Experimental: MCF7 or TamR3 cells were starved for 72 h and then seeded onto PEI coated coverslips in a 6-well plate at 1 × 10^5 cells/well. […] […] […] Coverslips were then permeabilized with 0.05% Triton X-100 for 5 minutes at room temperature. The Duolink In Situ Detection Reagents Red kit from Millipore Sigma (DUO92008) was used for blocking and PLA according to the manufacturer’s protocol. Primary antibodies, Estrogen Receptor alpha antibody (F-10) (sc-8002) and Rabbit anti-SRC3 antibody (A300-348 A), were diluted 1:50 in antibody diluent.

[2] = test system: ER transcriptional activity in T47D-KBluc cells; test: Luciferase transcriptional assay; details: ER transcription, luciferase reporter, 1 nM E2, 24 h treatment, ± SD of 3 biological replicates
Experimental: T47D-KBluc cells or PC3m-luc cells were starved for 72 h and then seeded into 96-well plates at 20,000 or 5,000 cells/well, respectively. […] One day post-treatment, the media was removed, and cells were lysed with 65 µl of 1x passive lysis buffer (Promega #E1910). Following two freeze-thaw cycles, 20 µl of lysate were transferred to a white, 96-well flat bottom plate (Corning Life Sciences Cat#3912). 50 µl of luciferase reagent (Promega. Luciferase Assay System E1500) was added to each well, and luminescence was measured using the TECAN M200 Pro plate reader. E2 (1 nM), 4-hydroxytamoxifen (OHT) (4 nM), and DMSO (0.2%) were used as controls for this assay. […] E2 alone represented 100% transcriptional activation, while the 0.2% DMSO control represented 0% transcriptional activity. OHT was used as a positive control for an active compound.

[3] = test system: ER target genes (cyclinD1, CDC2, E2F, PR, pS2) in MCF7 cells; test: Real-time PCR of ER target genes, MCF7; details: 10 µM, 72 h, E2 stimulation
Experimental: Total RNA was extracted using TRIzol, 72 h post-treatment. cDNA synthesis was conducted using the Maxima First Strand cDNA Synthesis Kit for RT-qPCR (Thermo K1641) according to the manufacturer’s protocol. RT-PCR was conducted on the QuantStudio 7 Pro instrument and expression fold change was calculated using 2−ΔΔCt method normalized to 18s.

[4] = target: T2, GR (ARR3tk-luc) in PC3 cells (Homo sapiens, UniProt P04150); test: Nuclear receptor luciferase transcriptional assay, GR; details: 1 or 5 µM, 1 nM Dexamethasone
T2 construct: expressed in transfected cells; host or cells: PC3 cells
T2 sequence (P04150 whole entry): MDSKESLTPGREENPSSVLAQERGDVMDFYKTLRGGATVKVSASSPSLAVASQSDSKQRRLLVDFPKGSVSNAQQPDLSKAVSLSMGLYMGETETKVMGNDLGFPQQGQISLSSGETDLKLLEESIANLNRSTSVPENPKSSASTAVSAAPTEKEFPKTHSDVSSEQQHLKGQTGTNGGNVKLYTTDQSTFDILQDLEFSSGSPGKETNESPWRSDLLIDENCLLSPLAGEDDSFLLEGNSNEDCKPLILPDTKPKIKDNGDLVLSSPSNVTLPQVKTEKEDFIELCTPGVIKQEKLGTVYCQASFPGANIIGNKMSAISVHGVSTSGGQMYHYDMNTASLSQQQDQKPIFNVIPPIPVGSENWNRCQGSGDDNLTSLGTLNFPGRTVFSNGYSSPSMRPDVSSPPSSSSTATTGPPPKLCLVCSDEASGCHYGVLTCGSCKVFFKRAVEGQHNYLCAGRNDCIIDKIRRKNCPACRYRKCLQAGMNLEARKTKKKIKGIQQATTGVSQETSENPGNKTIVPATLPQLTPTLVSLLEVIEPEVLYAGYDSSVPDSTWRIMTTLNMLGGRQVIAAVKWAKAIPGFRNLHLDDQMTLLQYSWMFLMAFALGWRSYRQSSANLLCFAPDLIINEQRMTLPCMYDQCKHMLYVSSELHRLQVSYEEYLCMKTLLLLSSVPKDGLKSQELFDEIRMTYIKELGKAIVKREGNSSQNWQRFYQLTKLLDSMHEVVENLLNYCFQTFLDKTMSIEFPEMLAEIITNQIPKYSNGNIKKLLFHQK
Experimental: (§1) PC3 cells (androgen receptor (AR)-, glucocorticoid receptor (GR)[…], progesterone receptor (PR)-, ER-) were starved for 72 h then seeded into a 96-well plate at a density of 5,000 cells/well. 24 h later, cells were transfected with either ER, AR, GR, or PR and a luciferase plasmid (ERE-luc for ER and ARR3tk-luc for AR, GR, and PR). 24 h post-transfection, cells were simultaneously stimulated with 1 nM E2 for ER, 0.1 nM R1881 for AR, 1 nM Dexamethasone for GR, or 1 nM Levonorgestrel for PR, and treated with 1 or 5 µM of VPC-260724 24 h post-treatment, cells were lysed with 50 µl of passive lysis buffer (Promega #E1910). 20 µl of lysate was transferred to a white flat-bottom 96-well plate (Corning Life Sciences Cat#3912). Luminescence readings were obtained using the TECAN M200 Pro plate reader following the addition of 50 µl of luciferase reagent (Promega Luciferase Assay System E1500).

[5] = target: T3, AR (ARR3tk-luc) in PC3 cells (Homo sapiens, UniProt P10275); test: Nuclear receptor luciferase transcriptional assay, AR; details: 1 or 5 µM, 0.1 nM R1881, PC3 cells
T3 construct: expressed in transfected cells; host or cells: PC3 cells
T3 sequence (P10275 whole entry): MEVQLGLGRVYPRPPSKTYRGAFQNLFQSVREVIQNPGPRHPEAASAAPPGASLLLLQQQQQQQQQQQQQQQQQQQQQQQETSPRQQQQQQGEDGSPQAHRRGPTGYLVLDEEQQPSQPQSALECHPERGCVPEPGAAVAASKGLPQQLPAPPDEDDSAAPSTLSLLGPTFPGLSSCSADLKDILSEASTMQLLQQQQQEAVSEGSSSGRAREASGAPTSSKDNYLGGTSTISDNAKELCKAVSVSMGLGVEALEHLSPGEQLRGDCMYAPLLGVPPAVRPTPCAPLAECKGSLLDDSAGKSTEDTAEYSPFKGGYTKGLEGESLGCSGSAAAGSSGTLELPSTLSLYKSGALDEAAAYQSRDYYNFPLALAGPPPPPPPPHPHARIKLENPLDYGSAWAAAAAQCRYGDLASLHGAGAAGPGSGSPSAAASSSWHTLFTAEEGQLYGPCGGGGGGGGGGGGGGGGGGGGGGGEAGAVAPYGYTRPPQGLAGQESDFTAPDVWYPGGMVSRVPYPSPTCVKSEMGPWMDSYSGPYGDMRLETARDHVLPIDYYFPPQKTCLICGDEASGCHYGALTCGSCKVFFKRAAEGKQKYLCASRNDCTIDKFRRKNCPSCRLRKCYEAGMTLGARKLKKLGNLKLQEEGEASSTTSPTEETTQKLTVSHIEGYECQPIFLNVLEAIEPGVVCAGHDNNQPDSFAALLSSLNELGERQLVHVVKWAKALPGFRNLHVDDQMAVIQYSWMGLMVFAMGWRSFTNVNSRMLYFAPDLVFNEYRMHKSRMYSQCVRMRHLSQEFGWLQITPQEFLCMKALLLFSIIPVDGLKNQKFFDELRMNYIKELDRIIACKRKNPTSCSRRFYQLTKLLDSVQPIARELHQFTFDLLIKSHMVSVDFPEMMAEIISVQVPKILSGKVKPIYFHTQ
Experimental: as §1

[6] = target: T4, PR (ARR3tk-luc) in PC3 cells (Homo sapiens, UniProt P06401); test: Nuclear receptor luciferase transcriptional assay, PR; details: 1 or 5 µM, 1 nM Levonorgestrel
T4 construct: expressed in transfected cells; host or cells: PC3 cells
T4 sequence (P06401 whole entry): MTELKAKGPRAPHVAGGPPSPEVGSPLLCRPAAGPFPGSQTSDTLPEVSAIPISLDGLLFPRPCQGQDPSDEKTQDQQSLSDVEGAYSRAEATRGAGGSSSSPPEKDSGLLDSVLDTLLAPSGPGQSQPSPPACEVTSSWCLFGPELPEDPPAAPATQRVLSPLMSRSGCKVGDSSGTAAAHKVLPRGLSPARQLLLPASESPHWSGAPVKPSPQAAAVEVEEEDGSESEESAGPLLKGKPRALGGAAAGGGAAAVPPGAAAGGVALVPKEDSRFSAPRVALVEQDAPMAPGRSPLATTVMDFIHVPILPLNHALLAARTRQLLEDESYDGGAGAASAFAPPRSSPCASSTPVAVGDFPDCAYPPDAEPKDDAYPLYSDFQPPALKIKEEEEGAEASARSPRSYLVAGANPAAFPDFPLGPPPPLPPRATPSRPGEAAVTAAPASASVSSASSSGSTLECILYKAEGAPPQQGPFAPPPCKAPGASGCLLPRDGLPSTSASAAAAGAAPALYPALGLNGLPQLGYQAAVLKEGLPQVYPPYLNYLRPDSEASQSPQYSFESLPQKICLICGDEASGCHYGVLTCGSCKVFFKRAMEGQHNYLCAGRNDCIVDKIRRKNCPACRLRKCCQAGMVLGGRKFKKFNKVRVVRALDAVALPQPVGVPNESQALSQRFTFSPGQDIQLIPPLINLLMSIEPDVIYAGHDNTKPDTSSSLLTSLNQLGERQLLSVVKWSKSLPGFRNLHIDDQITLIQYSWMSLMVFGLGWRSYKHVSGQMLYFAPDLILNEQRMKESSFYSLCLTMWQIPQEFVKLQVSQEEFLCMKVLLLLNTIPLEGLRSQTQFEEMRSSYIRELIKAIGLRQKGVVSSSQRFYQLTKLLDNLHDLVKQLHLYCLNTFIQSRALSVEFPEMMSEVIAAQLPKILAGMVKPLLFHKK
Experimental: as §1

MCF7 spheroids = test: Viability assay in 3D spheroids, MCF7; details: Homo sapiens, 1:2 dilution from 50 µM, 1 nM E2, read-out: IC50 on growth (area) of MCF7 spheroids
Experimental: MCF7 and T47D cells were seeded into a Corning Costar ultra-low attachment, round-bottom, 96-well plate (Millipore Sigma, CLS7007-24EA) at a density of 2,500 cells/well in starvation media. After 4 days of starvation, the cells were treated with a 1:2 serial dilution of inhibitor from 50 µM to 0.2 µM in the presence of 1 nM estradiol. Images were taken every 6 h using the IncuCyte S3 system and spheroid sizes were determined with the IncuCyte analysis software.

MDA-MB-231 cells = test: PrestoBlue viability assay, MDA-MB-231; details: dose response 50 to 0.01 µM, 1 nM E2
Experimental: (§2) T47D, MCF7, TamR3, and MDA-MB-231 cells were starved for 72 h and then seeded into black clear-bottom 96-well plates (Corning Life Sciences Cat#3904) at 20,000 cells/well (T47D, MCF7, TamR3) or 5,000 cells/well (MDA-MB-231). […] 20 µl of PrestoBlue Cell Viability Reagent (Thermo Fisher A13262) was added to each well and incubated at 37 °C for 1 h. Fluorescence intensity was measured using the TECAN F500 plate reader with emission and excitation wavelengths of […], respectively.

[7] = target: ER-Y537S - SRC3 interaction (Homo sapiens, UniProt P03372, Y537S); test: Proximity ligation assay, ER-Y537S mutant; details: PLA, 10 µM
Chain of ER-Y537S - SRC3 interaction (P03372 whole entry Y537S): as the sequence (P03372 whole entry) above, with Y537S counted along it
Experimental: (§3) MCF7 or TamR3 cells were starved for 72 h and then seeded onto PEI coated coverslips in a 6-well plate at 1 × 10^5 cells/well. For the E2 experiments, the cells were treated the following day with 10 µM of ER-AF2 inhibitor for 24 h, with E2 added 1 h before fixation. […] 24 h post-treatment, cells were fixed in methanol:acetone (3:1). Coverslips were then permeabilized with 0.05% Triton X-100 for 5 minutes at room temperature. The Duolink In Situ Detection Reagents Red kit from Millipore Sigma (DUO92008) was used for blocking and PLA according to the manufacturer’s protocol. Primary antibodies, Estrogen Receptor alpha antibody (F-10) (sc-8002) and Rabbit anti-SRC3 antibody (A300-348 A), were diluted 1:50 in antibody diluent.

[8] = target: ER-D538G - SRC3 interaction (Homo sapiens, UniProt P03372, D538G); test: Proximity ligation assay, ER-D538G mutant; details: PLA, 10 µM
Chain of ER-D538G - SRC3 interaction (P03372 whole entry D538G): as the sequence (P03372 whole entry) above, with D538G counted along it
Experimental: as §3

T47D cells = test: PrestoBlue viability assay, T47D; details: 1 nM E2, 72 h treatment, ± SD of 3 biological replicates
Experimental: as §2

For `Cc1cccn2c(CNCc3cccc(N(C)C)n3)cnc12` [VPC-260724], the “ER-SRC3 interactions (PLA signals per nuclei), MCF7” value [1] was “significantly reduced ER-SRC3 interactions”, the IC50 ([2]; 24 h) was 5.7 µM and the IC50 [2] was 5.75 ± 1.13 µM. For the same compound, the “mRNA levels of ER target genes, MCF7” value [3] was “significant decrease”, the “Transcriptional activity of GR” value [4] was “did not significantly impact” and the “Transcriptional activity of AR” value [5] was “did not significantly impact”. For the same compound, the “Transcriptional activity of PR” value [6] was “did not significantly impact”, the IC50 (MCF7 spheroids) was 15.6 ± 1.4 µM and the “Effect on viability of ER-negative MDA-MB-231 cells” value (MDA-MB-231 cells) was “minimal impact; also recorded: did not affect the viability”. The “Interaction between SRC3 and ER-Y537S” value [7] was “inhibited the interaction”, the “Interaction between SRC3 and ER-D538G” value [8] was “inhibited the interaction” and the IC50 (T47D cells) was 7.42 ± 2.12 µM. The IC50 (T47D cells; Homo sapiens, T47D, 72 h) was 7.4 µM.
